What all share (assay type): cell-based
For one experiment, the target named is T1, mouseP2X7 (Mus musculus, UniProt Q9Z1M0).
T1 construct: expressed in transfected cells; host or cells: HEK-293
T1 sequence (Q9Z1M0 1-595): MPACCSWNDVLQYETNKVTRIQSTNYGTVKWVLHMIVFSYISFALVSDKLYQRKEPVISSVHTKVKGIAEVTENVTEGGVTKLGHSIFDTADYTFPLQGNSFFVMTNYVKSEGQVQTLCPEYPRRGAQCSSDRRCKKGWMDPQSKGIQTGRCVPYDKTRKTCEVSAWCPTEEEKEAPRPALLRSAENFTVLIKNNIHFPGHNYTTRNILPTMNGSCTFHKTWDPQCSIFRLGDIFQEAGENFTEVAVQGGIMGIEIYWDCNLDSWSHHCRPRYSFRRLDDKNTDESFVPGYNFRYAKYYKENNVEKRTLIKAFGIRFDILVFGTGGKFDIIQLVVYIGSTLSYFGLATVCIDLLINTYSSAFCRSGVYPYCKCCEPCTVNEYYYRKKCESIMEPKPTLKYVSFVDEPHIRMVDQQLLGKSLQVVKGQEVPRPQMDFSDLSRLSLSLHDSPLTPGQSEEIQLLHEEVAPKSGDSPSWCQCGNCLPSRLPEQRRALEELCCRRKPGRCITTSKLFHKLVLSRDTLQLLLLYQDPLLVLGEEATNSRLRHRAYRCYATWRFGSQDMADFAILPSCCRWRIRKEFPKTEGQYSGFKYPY
As to the kind of experiment: P2X7 channel calcium-influx assay (Fluo-8, FLIPR TETRA), mouse P2X7. Conditions: HEK-293 cells stably transfected with P2X7; Bz-ATP at EC80; low divalent cation buffer; read-out: mouseP2X7 (activity range). How it is done:
(§1) Extracellular binding of Bz-ATP to P2X7 receptor opens the channel and allows Ca^2+ influx into the cells. This Ca^2+ entry was measured in HEK-293 cells stably transfected with P2X7 receptor using Screen Quest™ Fluo-8 No Wash Calcium Assay Kit (AAt Bioquest®, cat. 36316). Once inside the cell, the lipophilic blocking groups of Fluo-8 are cleaved by non-specific cell esterases, resulting in a negatively-charged fluorescent dye that stays inside cells. Its fluorescence increases upon binding to calcium. When HEK-293/P2X7 cells are stimulated with Bz-ATP, Ca^2+ enters the cells and the fluorescence of Fluo-8 NW increases. The dye has an absorption spectrum compatible with excitation at 488 nm by argon laser sources and its emission wavelength is in the range of 515-575 nm.
(§2) HEK-293 cells stably transfected with P2X7 receptor were seeded overnight in growth medium at 10,000 to 20,000 cells/well in 384-well plate. 24 hours later, the medium was removed, and the cells were pre-loaded at RT for 1 hour with 20 μL/w of Fluo-8 NW. Then 10 μL/w of test compounds and reference antagonist A438079 at 3×-concentration were injected with the FLIPRTETRA and the kinetic response over a period of five minutes was monitored. A second injection of 15 μL/w of 3× reference activator (Bz-ATP at EC80) was performed with the FLIPR TETRA and the signal of the emitted fluorescence was recorded for additional three minutes. All the experiment was carried out in a Low Divalent Cation Assay Buffer (0.3 mM Ca^2+ and 0 mM Mg^2+). The effect of the test compounds was measured as percent inhibition vs the reference antagonist and IC50 values were calculated accordingly. Here are reported the potency ranges as A, B, C and D, where A is <200 nM; B is 200 nM-1 μM, C is 1-10 μM, D is 10-30 μM.

A further experiment deals with T2, humanP2X7 (Homo sapiens, UniProt Q99572).
T2 construct: expressed in transfected cells; host or cells: HEK-293
T2 sequence (Q99572 1-595): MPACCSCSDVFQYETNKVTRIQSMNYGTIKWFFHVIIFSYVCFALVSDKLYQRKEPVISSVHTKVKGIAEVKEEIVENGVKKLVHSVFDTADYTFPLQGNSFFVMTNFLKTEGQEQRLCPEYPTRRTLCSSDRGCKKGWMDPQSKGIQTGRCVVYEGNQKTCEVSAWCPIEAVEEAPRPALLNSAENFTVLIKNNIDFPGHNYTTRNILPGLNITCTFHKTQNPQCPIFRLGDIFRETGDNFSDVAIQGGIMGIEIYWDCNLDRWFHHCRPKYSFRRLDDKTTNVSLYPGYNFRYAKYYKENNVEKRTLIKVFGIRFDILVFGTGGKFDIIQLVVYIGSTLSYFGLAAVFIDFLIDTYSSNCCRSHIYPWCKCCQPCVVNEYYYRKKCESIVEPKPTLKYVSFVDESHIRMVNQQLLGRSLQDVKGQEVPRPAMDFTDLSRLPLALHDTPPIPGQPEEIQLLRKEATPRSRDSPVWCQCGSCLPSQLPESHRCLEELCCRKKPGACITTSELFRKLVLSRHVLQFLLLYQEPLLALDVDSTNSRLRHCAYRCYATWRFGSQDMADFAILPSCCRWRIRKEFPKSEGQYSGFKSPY
As to the kind of experiment: P2X7 channel calcium-influx assay (Fluo-8, FLIPR TETRA), human P2X7. Conditions: HEK-293 cells stably transfected with P2X7; Bz-ATP at EC80; low divalent cation buffer; read-out: humanP2X7 (activity range). Here is the method:
as §1, §2

A further experiment deals with T3, human P2X7 channel (Homo sapiens, UniProt Q99572).
T3 construct: expressed in transfected cells; host or cells: HEK-293
T3 sequence (Q99572 1-595): T2 sequence (Q99572 1-595)
As to the kind of experiment: human P2X7 channel assay by automated patch-clamp (QPatch 16X). Conditions: HEK-293 cells expressing P2X7; current evoked by 100 microM BzATP; whole-cell, held at -80 mV; read-out: human Q-Patch (activity range). Here is the method:
In order to directly monitor the block of P2X7 channel, an electrophysiological assay was developed and implemented on the QPatchl6X automated electrophysiology instrument.
HEK-293 cells expressing the P2X7 channels were cultured in modified EMEM.
72 hours before experiment, 5 million cells were seeded onto T225 flasks. Just before the experiment cells were washed twice, detached from the flask with trypsin-EDTA, re-suspended in the suspension solution and placed on the QPatch 16x.
The compounds (20 mM in a 100% DMSO) stored at −20° C. were prepared the day of the experiment (a first dilution 1:20 in 100% DMSO to prepare a 1 mM stock solution, then a 1 microM solution in external solution+a serial dilution 1:10).
The standard whole-cell voltage clamp experiments were performed at room temperature. From these experiments the multihole technology was used and the data were sampled at 2 KHz.
The intracellular solution contained (mM) 135 CsF, 10 NaCl, 1 EGTA, 10 HEPES, (pH 7.2 with CsOH) whereas the extracellular contained (mM) 145 NaCl, 4 KCl, 0.5 MgCl2, 1 CaCl2, 10 HEPES, 10 Glc (pH 7.4 with NaOH).
After establishment of the seal and the passage in the whole cell configuration, the cells were held at −80 mV. The P2XR7 current was evoked by applying 100 microM of BzATP alone (4 times) and then in the presence increasing concentrations of the compound under investigation (1, 10, 100 and 1000 nM).
The pre-incubation periods 5 to 8 contain increasing concentrations of the compound of interest (1, 10, 100 and 1000 nM), as illustrated in FIGURE (application protocol).
The maximal inward current evoked by BzATP in absence or presence of increasing concentrations of the compounds under investigation was measured and normalized. The potential […] effect was measured as % of control and as IC50 determined fitting the dose-response curves data with the following equation:
Here are reported the potency ranges as A, B, C and D, where A is <10 nM; B is 10 nM-100 nM, C is 0.1-1 μM, D is 1-10 μM.
For orientation: In patch-clamp work, channel activity is measured electrically.

For the next experiment, the target named is T4, ratP2X7 (Rattus norvegicus, UniProt Q64663).
T4 construct: expressed in transfected cells; host or cells: HEK-293
T4 sequence (Q64663 1-595): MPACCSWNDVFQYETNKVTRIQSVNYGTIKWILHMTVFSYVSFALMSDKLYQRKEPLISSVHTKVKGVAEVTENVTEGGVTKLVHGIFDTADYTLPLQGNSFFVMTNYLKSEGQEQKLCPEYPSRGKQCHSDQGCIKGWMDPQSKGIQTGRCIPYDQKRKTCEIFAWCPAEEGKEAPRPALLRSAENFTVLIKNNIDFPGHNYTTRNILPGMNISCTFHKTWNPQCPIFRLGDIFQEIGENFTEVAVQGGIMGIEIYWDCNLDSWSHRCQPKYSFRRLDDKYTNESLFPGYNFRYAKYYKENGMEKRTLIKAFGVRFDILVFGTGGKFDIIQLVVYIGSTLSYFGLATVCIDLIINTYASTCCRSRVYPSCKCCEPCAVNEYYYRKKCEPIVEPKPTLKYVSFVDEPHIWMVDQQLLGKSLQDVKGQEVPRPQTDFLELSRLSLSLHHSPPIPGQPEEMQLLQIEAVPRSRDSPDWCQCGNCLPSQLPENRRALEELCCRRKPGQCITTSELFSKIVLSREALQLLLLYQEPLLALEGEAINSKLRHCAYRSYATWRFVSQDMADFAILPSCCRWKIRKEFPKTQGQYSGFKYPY
Put plainly: P2X7 channel calcium-influx assay (Fluo-8, FLIPR TETRA), rat P2X7. Conditions: HEK-293 cells stably transfected with P2X7; Bz-ATP at EC80; low divalent cation buffer; read-out: ratP2X7 (activity range). Here is the method: as §1, §2

SMILES strings stand for the structures. pIC50: −log10 of the molar value. Bounds are passed on as bounds.

`Cn1nc(Cc2c(F)cccc2Cl)n(CC2CCC(F)(F)CC2)c1=O` [Example 3, 5-(2-chloro-6-fluorobenzyl)-4-((4,4-difluorocyclohexyl)methyl)-2-methyl-2,4-dihydro-3H-1,2,4-triazol-3-one]: the pIC50 on mouseP2X7 is 6.00 to 6.70; at humanP2X7, > 6.70; at human P2X7 channel it was 7.00 to 8.00; on ratP2X7, > 6.70.
As to `Cn1nc(Cc2c(F)cccc2Cl)n(CC2CC3C(C2)C3(F)F)c1=O` (stereo not shown) [Example 5, 5-(2-chloro-6-fluorobenzyl)-4-((6,6-difluorobicyclo[3.1.0]hexan-3-yl)methyl)-2-methyl-2,4-dihydro-3H-1,2,4-triazol-3-one], the pIC50 at mouseP2X7 was 5.00 to 6.00; on humanP2X7 it was 6.00 to 6.70; on human P2X7 channel, 7.00 to 8.00; on ratP2X7, > 6.70.
As for `Cn1nc(Cc2ccc(F)cc2Cl)n(CC2CCCCCC2)c1=O` [Example 11, 5-(2-chloro-4-fluorobenzyl)-4-(cycloheptylmethyl)-2-methyl-2,4-dihydro-3H-1,2,4-triazol-3-one], the pIC50 was 6.00 to 6.70 at mouseP2X7, > 6.70 at humanP2X7, 7.00 to 8.00 on human P2X7 channel and > 6.70 on ratP2X7.
Take `Cn1nc(Cc2c(F)cccc2Cl)n(CC2CCCCCC2)c1=O` [Example 12, 5-(2-chloro-6-fluorobenzyl)-4-(cycloheptylmethyl)-2-methyl-2,4-dihydro-3H-1,2,4-triazol-3-one]: the pIC50 at mouseP2X7 was > 6.70; at humanP2X7, > 6.70; on human P2X7 channel it was > 8.00; on ratP2X7, > 6.70.
Regarding `Cn1nc(CC2CCCCC2)n(Cc2ccnc(C(F)(F)F)c2)c1=O` [Example 13, 5-(cyclohexylmethyl)-2-methyl-4-((2-(trifluoromethyl)pyridin-4-yl)methyl)-2,4-dihydro-3H-1,2,4-triazol-3-one], the pIC50 on mouseP2X7 is 4.52 to 5.00; at humanP2X7 it was 4.52 to 5.00; at human P2X7 channel, 5.00 to 6.00; at ratP2X7, 4.52 to 5.00.
Consider `Cn1nc(Cc2c(F)cccc2Cl)n(CC2CCC3(CC2)CC3)c1=O` [Example 14, 5-(2-chloro-6-fluorobenzyl)-2-methyl-4-(spiro[2.5]octan-6-ylmethyl)-2,4-dihydro-3H-1,2,4-triazol-3-one], for which the pIC50 at mouseP2X7 is > 6.70; on humanP2X7, > 6.70; on human P2X7 channel, > 8.00; on ratP2X7 it was > 6.70.
On to `Cn1nc(Cc2c(F)cccc2Cl)n(CCC2CCC(F)(F)CC2)c1=O` [Example 15, 5-(2-chloro-6-fluorobenzyl)-4-(2-(4,4-difluorocyclohexyl)ethyl)-2-methyl-2,4-dihydro-3H-1,2,4-triazol-3-one], for which the pIC50 on mouseP2X7 was 5.00 to 6.00; at humanP2X7 it was > 6.70; on human P2X7 channel, 7.00 to 8.00; at ratP2X7, > 6.70.
For `Cn1nc(Cc2c(F)cccc2Cl)n(CCC2CCC(C)(C)CC2)c1=O` [Example 16, 5-(2-chloro-6-fluorobenzyl)-4-(2-(4,4-dimethylcyclohexyl)ethyl)-2-methyl-2,4-dihydro-3H-1,2,4-triazol-3-one], the pIC50 at mouseP2X7 was 5.00 to 6.00; at humanP2X7 it was 6.00 to 6.70; at human P2X7 channel, 7.00 to 8.00; at ratP2X7, 6.00 to 6.70.
As for `Cn1nc(Cc2ccccc2C(F)(F)F)n(CC2CCCCC2)c1=O` [Example 17, 4-(cyclohexylmethyl)-2-methyl-5-(2-(trifluoromethyl)benzyl)-2,4-dihydro-3H-1,2,4-triazol-3-one], the pIC50 was 5.00 to 6.00 on mouseP2X7, 6.00 to 6.70 at humanP2X7, 6.00 to 7.00 on human P2X7 channel and > 6.70 on ratP2X7.
Turning to `Cn1nc(Cc2ccccc2C(F)(F)F)n(CC2CCC(F)(F)CC2)c1=O` [Example 18, 4-((4,4-difluorocyclohexyl)methyl)-2-methyl-5-(2-(trifluoromethyl)benzyl)-2,4-dihydro-3H-1,2,4-triazol-3-one], the pIC50 on mouseP2X7 is 5.00 to 6.00; at humanP2X7, > 6.70; on human P2X7 channel, 7.00 to 8.00; at ratP2X7 it was > 6.70.

(Values after patent publication US20240368092A1, “2,4-Dihydro-3H-1,2,4-Triazol-3-One P2X7 Antagonists” (Breye Therapeutics ApS, priority 2021, published 2024).)
